Assay results: patent US7109213B2, “Aminopiperidine compounds, process for their preparation, and pharmaceutical compositions containing them” (Glaxo Group Limited, priority 2002, dated 2006)

Legend:
Assay in all cases: MIC of test compounds against various organisms
Type in all cases: cell-based
E.faecalis 2 = settings: Enterococcus faecalis, range stated for all organisms of the panel
Description: (§1) The MIC (μg/ml) of test compounds against various organisms may be determined: S. epidermidis CL7, S. aureus WCUH29, S. pneumoniae 1629, S. pyogenes CN10, H. influenzae ATCC49247, E.faecalis 2, E. faecium 8, M. catarrhalis Ravisio, E. coli 7623.

S. aureus WCUH29 = settings: Staphylococcus aureus, range stated for all organisms of the panel
Description: as §1

E. coli 7623 = settings: Escherichia coli, range stated for all organisms of the panel
Description: as §1

S. pneumoniae 1629 = settings: Streptococcus pneumoniae, range stated for all organisms of the panel
Description: as §1

M. catarrhalis Ravisio = settings: Moraxella catarrhalis, range stated for all organisms of the panel
Description: as §1

S. pyogenes CN10 = settings: Streptococcus pyogenes, range stated for all organisms of the panel
Description: as §1

E. faecium 8 = settings: Enterococcus faecium, range stated for all organisms of the panel
Description: as §1

S. epidermidis CL7 = settings: Staphylococcus epidermidis, range stated for all organisms of the panel
Description: as §1

H. influenzae ATCC49247 = settings: Haemophilus influenzae, range stated for all organisms of the panel
Description: as §1

Measured: MIC

COc1ccc2nccc([C@@H](O)CN3CCC(NCc4cnc5snnc5c4)C(F)C3)c2n1 (single isomer, unassigned) [Example 3]
0.06 to 16 µg/mL: all assays above
